A short description of series [1]: Cytotoxicity in the coronavirus assay, uninfected parallel cultures. In kind it is cell-based. The following applies: human, read-out: OC43CoV CC50. The method, then: (§1) The human β-coronavirus strain OC43 was purchased from ATCC (Manassas, Va.; item numbers VR-1558 and VR-740, respectively). 24 hours prior to dosing, HeLa human cervix epithelial cells (ATCC, CCL-2) or MRC-5 human lung fibroblast (ATCC, CCL-171) were plated in 96 well plates at a density of 1.5×10^5/ml in DMEM medium supplemented with 10% fetal bovine serum, 1% HEPES buffer, 1% Penicillin/Streptomycin and 1% non-essential amino acids (all Mediatech, Manassas, Va.). At the day of infection, serially diluted compounds were added to cells and incubated for 4 hours. After the end of the 4 hour pre-incubation period, cells were infected with either coronavirus strain OC43 or 229E. The virus inoculum was selected to cause 80-90% cytopathic effect. Infected cells were incubated for five days at 37° C., 5% CO2. To develop the assay, 100 μl media was replaced with 100 μl CellTiter-Glo® reagent (Promega, Madison, Wis.), and incubated for 10 min at room temperature. Luminescence was measured on a Victor X3 multi-label plate reader. Potential compound cytotoxicity was determined using uninfected parallel cultures.

The test system of series [2] is Dengue virus type 2 NG-C or Dengue virus type 4 H241. Kind of series: Dengue antiviral assay (DENV). The conditions noted are these: Huh-7.5 cells, five to six days, CellTiter-Glo. Type of series: cell-based. The method, then: The Dengue virus type 2 strain New Guniea C (NG-C) and the Dengue virus type 4 strain H241 were purchased from ATCC (Manassas, Va.; item numbers VR-1584 and VR-1490, respectively). 24 hours prior to dosing, Huh-7.5 cells were plated in 96 well plates at a density of 1.5×10^5/ml in DMEM medium supplemented with 10% fetal bovine serum, 1% HEPES buffer, 1% Penicillin/Streptomycin and 1% non-essential amino acids (all Mediatech, Manassas, Va.). At the day of infection, serially diluted compounds were added to cells and incubated for 4 hours. After the end of the 4 hour pre-incubation period, cells were infected with either Dengue virus type 2 NG-C or Dengue virus type 4 H241. The virus inoculum was selected to cause 80-90% cytopathic effect in five to six days. Infected cells were incubated for five (NG-C) to six (H241) days at 37° C., 5% CO2. To develop the assay, 100 μl media was replaced with 100 μl CellTiter-Glo® reagent (Promega, Madison, Wis.), and incubated for 10 min at room temperature. Luminescence was measured on a Victor X3 multi-label plate reader. Potential compound cytotoxicity was determined using uninfected parallel cultures.
On the technique in general: ATP-based viability assays read luminescence as a measure of living cells.

The test system of series [3] is Huh-7.5 cells. Briefly: Cytotoxicity in the DENV assay, uninfected parallel cultures. The following applies: read-out: DENV CC50; uninfected Huh-7.5 parallel cultures.
Assay in series [4]: as above
The conditions noted are these: human.

The nature of series [5]: in vitro. The conditions noted are these: human.
Series [6] concerns RSV replicon. Kind of series: microbe, parasite or virus in culture. In kind it is cell-based. The conditions noted are these: human respiratory syncytial virus, 168 h, read-out: RSV EC50, HeLa-derived RSV replicon cells, 7 days, luciferase. For orientation: In antiviral work, replicon cells carry a viral genome segment that copies itself.
Series [7] in a line: Cell viability (CC50) in the RSV replicon assay. The conditions noted are these: human, HeLa-derived cells containing the stable RSV replicon, CellTiter-Glo.
The subject of series [8] is Human rhinovirus 1B. Kind of series: Rhinovirus antiviral assay (HRV1B). Type of series: cell-based. The following applies: Rhinovirus A, 96 h.
The subject of series [9] is Ebola minigenome. Briefly: microbe, parasite or virus in culture. Type of series: cell-based. The following applies: Zaire ebolavirus, HEp-2, 48 h, read-out: EBOV EC50, HEp-2 cells, Ebola minigenome, 48 hours.
The nature of series [10]: Toxicity (CC50) in the HRV1B assay. The following applies: human.
In series [11] the test system is human β-coronavirus strain OC43. Briefly: Coronavirus antiviral assay (OC43). In kind it is cell-based. The conditions noted are these: Betacoronavirus 1, OC43, 120 h; HeLa or MRC-5 cells, five days, CellTiter-Glo; read-out: OC43CoV EC50. Here is the method: as §1
Series [12] is described as follows: in vitro. The conditions noted are these: human. This is another data set of the same source.
[13] abbreviates: DENV CC50, uninfected Huh-7.5 parallel cultures.
[14] abbreviates: read-out: HRV 1B EC50, HeLa-OHIO cells, 4 d, CellTiter-Glo.

Where two headings read alike, the source gives them in different places.

Take `CC(C)OC(=O)[C@H](C)NP(=O)(OC[C@@]1(F)O[C@@](C#N)(c2ccc3c(N)ncnn23)[C@H](O)[C@@H]1O)Oc1ccccc1` (stereo partly drawn) [Compound 6, Isopropyl ((((2S,3S,4R,5R)-5-(4-aminopyrrolo[2,1-f][1,2,4]triazin-7-yl)-5-cyano-2-fluoro-3,4-dihydroxytetrahydrofuran-2-yl)methoxy)(phenoxy)phosphoryl)-L-alaninate]: the CC50 at 5 days in series [1] was greater than 100 µM. Further, the EC50 in [2] (Dengue virus, Huh7.5, 144 h) turned out to be 0.25 µM; in series [2], 0.33 µM; in [6], 0.02 µM; in [8] (setting [14]), 4.1 µM; in series [9] it was 2.5 µM; in series [11], 1.7 µM. In addition, the CC50 in series [3] is 69 µM; in series [4] (setting [13]) it was 78 µM; in series [5], greater than 100 µM. The same molecule showed a CC50 at 7 days in [7] of 43 µM. The CC50 at 4 d in series [10] was greater than 100 µM.

Regarding `CC(C)CCOC(=O)C[C@H](NP(=O)(OC[C@@]1(F)O[C@@](C#N)(c2ccc3c(N)ncnn23)[C@H](O)[C@@H]1O)Oc1ccccc1)C(=O)OCCC(C)C` (stereo partly drawn) [Compound 7, Diisopentyl ((((2S,3S,4R,5R)-5-(4-aminopyrrolo[2,1-f][1,2,4]triazin-7-yl)-5-cyano-2-fluoro-3,4-dihydroxytetrahydrofuran-2-yl)methoxy)(phenoxy)phosphoryl)-L-aspartate], the CC50 at 5 days in series [1] is 13 µM. For the same molecule, the EC50 in series [2] (Dengue virus, Huh7.5, 144 h) turned out to be 0.0014 µM; in [6] it was 0.03 µM; in [8] (setting [14]), 0.15 µM; in series [9], 0.2 µM; in series [11], 0.056 µM. Further, the CC50 in series [3] was 21 µM; in series [4] (setting [13]) it was 15 µM; in series [5], 14 µM. The molecule further displayed a CC50 at 7 days in series [7] of 21 µM. In addition, the CC50 at 4 d in [10] is 12.4 µM.

`CCC(CC)COC(=O)[C@@H](C)NP(=O)(OC[C@H]1O[C@@](C#N)(c2ccc3c(N)ncnn23)[C@H](O)[C@@H]1O)Oc1ccccc1` (some centres unmarked) [Compound C1, reference compound]: in [1], the CC50 at 5 days amounted to 69 µM. In addition, in [12], the CC50 at 4 d amounted to 6 µM. For the same molecule, the EC50 in series [2] (Dengue virus, Huh7.5, 144 h) is 0.13 µM; in series [6], 0.02 µM; in series [8] (HeLa-OHIO cells, 4 d, CellTiter-Glo, read-out: HRV 1B EC50), 0.12 µM; in series [9], 0.8 µM; in series [11], 0.065 µM. The CC50 in series [4] worked out at 22 µM; in series [5] it was 51 µM.

One may read the EC50 as the concentration that produces a half-maximal response.

Source of the values: patent US11149049B2, “Substituted nucleosides, nucleotides and analogs thereof” (JANSSEN BIOPHARMA, INC., priority 2017, dated 2021).
